According to patent publication US20240316141A1, “The Use of Thiourea and Thiourea Derivatives As Potentiators of Antibacterial Activity of Peptoids” (The Board of Trustees of the Leland Stanford Junior …, priority 2021, published 2024):

Experiments:
Pseudomonas aeruginosa = assay: MIC of peptoid in the presence and absence of thiourea, 24 h incubation, absorbance at 600 nm; format: cell-based; details: presence vs absence of thiourea
Description: FIG. 1. The minimum inhibitory concentration (MIC) of peptoid (TM5) in the presence and absence of thiourea was examined. MIC was defined as the lowest concentration of peptoid that will inhibit the bacterial growth (i.e., increasing absorbance at 600 nm) after 24 h incubation.

Klebsiella pneumoniae = assay: as above; format: cell-based; details: Klebsiella pneumoniae (ciprofloxacin-resistant), presence vs absence of thiourea
Description: FIG. 2. The minimum inhibitory concentration (MIC) of peptoid (TM5) in the presence and absence of thiourea was examined. MIC was defined as the lowest concentration of peptoid that will inhibit the bacterial growth (i.e., increasing absorbance at 600 nm) after 24 h incubation.

[1] = tested on: PA01 ofloxacin induced persister cells; assay: Eradication of ofloxacin induced persister cells; format: cell-based, Pseudomonas aeruginosa; details: PA01 persister cells from stationary phase culture treated with ofloxacin 5 μg/ml for 24 h
bacterial growth [2] = assay: MIC of different peptoids in the presence and absence of thiourea; format: cell-based; details: presence vs absence of thiourea; FIGS. 6A-6E
Staphylococcus aureus = assay: MIC of peptoid in the presence and absence of thiourea, 24 h incubation, absorbance at 600 nm; format: cell-based; details: presence vs absence of thiourea
Description: FIG. 3. The minimum inhibitory concentration (MIC) of peptoid (TM5) in the presence and absence of thiourea was examined. MIC was defined as the lowest concentration of peptoid that will inhibit the bacterial growth (i.e., increasing absorbance at 600 nm) after 24 h incubation.

bacterial growth [3] = assay: MIC of peptoid in the presence and absence of urea, 24 hour incubation; format: cell-based; details: MIC of TM5 in presence vs absence of urea
Description: (§1) FIG. 8. The minimum inhibitory concentration (MIC) of peptoid (TM5) in the presence and absence of urea was examined. MIC was defined as the lowest concentration of peptoid that will inhibit the bacterial growth (i.e., increasing absorbance at 600 nm) after a 24 hour incubation.

bacterial growth [4] = assay: MIC of antimicrobial peptide in the presence and absence of thiourea, 24 hour incubation; format: cell-based; details: presence vs absence of thiourea
Description: as §1, with “7.” for “8.”, “an antimicrobial peptide (LL-37)” for “peptoid (TM5)”, “thiourea” for “urea”, “an antimicrobial peptide” for “peptoid”

With H-Ntridec-NLys-Nspe-Nspe-NLys-NH2 [TM5] as the molecule, how does the “effect of thiourea on minimum inhibitory concentration (MIC) / antimicrobial activity of peptoid” value (Pseudomonas aeruginosa) read?
Its value is “increases antimicrobial activity”.

And the “effect of thiourea on minimum inhibitory concentration (MIC) / antimicrobial activity of peptoid” value (Klebsiella pneumoniae)?
Its value is “increases antimicrobial activity”.

What about the “effect of thiourea on persister eradication capability” value [1] of the same molecule?
The value was “enhance the persister eradication capability”.

What about the “effect of thiourea on antimicrobial activity (MIC) of different peptoids” value (from here on “effect of thiourea … of different peptoids”) (bacterial growth [2]) of the same molecule?
The value was “increases antimicrobial activity”.

What about the “effect of thiourea on minimum inhibitory concentration (MIC) / antimicrobial activity of peptoid” value (Staphylococcus aureus) of the same molecule?
Its value is “increases antimicrobial activity”.

NC(N)=O [urea] was tested. Which “synergy of urea with peptoid TM5 (MIC)” value (bacterial growth [3]) did it give?
Its value is “did not synergize”.

For “H—(NLys-Nspe-Nspe)3-NLys-Nspe-NLys-NH2 [TM16]”, which “effect of thiourea … of different peptoids” value (bacterial growth [2]) is on record?
The value was “increases antimicrobial activity”.

How did the “effect of thiourea … of different peptoids” value (bacterial growth [2]) turn out when “H—(NLys-Nspe(p-Br)-Nspe(p-Br))2—NH2 [TM4]” was run?
Its value is “increases antimicrobial activity”.

For “H-Ntridec-(NLys-Nspe-Nspe(p-Br))2-NLys-NH2 [TM20]”, which “effect of thiourea … of different peptoids” value (bacterial growth [2]) is on record?
The value was “increases antimicrobial activity”.

For LL-37: antimicrobial peptide (LL-37), which “synergy of thiourea with antimicrobial peptide (MIC)” value (bacterial growth [4]) is on record?
The value was “did not synergize”.
